Experimental findings from US10308637B2 (LifeSci Pharmaceuticals, Inc., priority 2015, dated 2019) are described below.

One assay addresses human plasma kallikrein (Homo sapiens (Human), UniProt P03952). Kind of assay: In vitro enzyme inhibition of human plasma kallikrein (Pro-Phe-Arg-AMC cleavage). The format is biochemical. The following applies: Pro-Phe-Arg-AMC substrate, 37° C., read-out: hPK IC50. How it is done:
The ability of the compounds disclosed herein to inhibit human plasma kallikrein activity was quantified according to the procedures below.
A 10 mM solution of the test compound was made in DMSO. […] A control tube containing only DMSO is included. 16 μL of each compound test solution was combined with 384 μL of assay buffer (50 mM Tris-HCl pH 7.5, 150 mM NaCl, 0.01% Triton X-100) to yield a “4× test compound buffer stock”.
These solutions are hereby referred to as 4×hPK and 2×PFR-AMC, respectively.
50 μL was removed from this mixture and placed into duplicate wells on a Microfluor 1Black U-bottom microtiter plate (Thermo Scientific). This plate was incubated for 5 minutes at 37° C. To each well, 50 µL of pre-warmed 2×PFR-AMC was added to start the enzymatic reaction. Cleavage of PFR-AMC was monitored in a Biotek Synergy H4 reader set at 37° C. Readings are taken every 43 seconds for 1 hour. […] The IC50 is calculated using the Gen5 (Biotek Instruments).
The ability of the compounds in Table 3 to inhibit human plasma kallikrein activity was determined.

A short description of assay [1]: Contact Assay (percentage inhibition from fluorescence intensity). It is filed as biochemical. As for the experimental part:
The percentage inhibition was calculated using the following equation:
[formula] where, Mean(BG) is the average value of the fluorescence intensity of the background wells and Mean(PC) is the average value of the fluorescence intensity of the positive control wells.
Table 4 provides the EC50 values of various compounds disclosed herein.

Sequence of human plasma kallikrein (P03952 391-638 limits assumed): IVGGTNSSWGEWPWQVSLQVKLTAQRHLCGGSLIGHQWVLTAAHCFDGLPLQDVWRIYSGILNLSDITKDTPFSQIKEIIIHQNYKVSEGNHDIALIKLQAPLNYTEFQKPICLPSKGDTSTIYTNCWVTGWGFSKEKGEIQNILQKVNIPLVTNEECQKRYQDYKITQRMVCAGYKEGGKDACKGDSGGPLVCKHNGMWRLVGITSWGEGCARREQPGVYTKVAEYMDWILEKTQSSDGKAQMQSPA
Sequence of human plasma kallikrein (P03952 20-390 partner limits assumed): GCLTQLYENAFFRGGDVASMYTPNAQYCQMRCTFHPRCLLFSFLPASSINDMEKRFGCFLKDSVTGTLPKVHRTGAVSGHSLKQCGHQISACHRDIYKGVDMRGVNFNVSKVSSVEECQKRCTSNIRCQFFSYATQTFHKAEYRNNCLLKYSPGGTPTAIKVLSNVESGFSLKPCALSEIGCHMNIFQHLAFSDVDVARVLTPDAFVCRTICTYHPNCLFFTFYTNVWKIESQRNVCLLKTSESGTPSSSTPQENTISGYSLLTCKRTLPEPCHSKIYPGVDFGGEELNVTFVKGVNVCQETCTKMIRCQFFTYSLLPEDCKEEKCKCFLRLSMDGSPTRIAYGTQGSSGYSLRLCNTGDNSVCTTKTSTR

Broadly, the IC50 is the concentration at which inhibition is half-maximal. In general, EC50 refers to the concentration that produces a half-maximal response. Regarding `Cc1cc(N)nc(C)c1CNC(=O)c1cc(Cc2ccc3ncc(Cl)cc3c2)nc(C(=O)O)c1` [Example 209, 4-((6-amino-2,4-dimethylpyridin-3-yl)methylcarbamoyl)-6-((3-chloroquinolin-6-yl)methyl)picolinic Acid], the IC50 on human plasma kallikrein is less than 100 nM. The compound further had an EC50 in assay [1] of 100 to 1000 nM. For “N-(3-chloro-6-fluoro-1H-indol-5-ylmethyl)-2-(2-cyano-quinolin-6-ylmethyl)-isonicotinamide [Example 130]”, at human plasma kallikrein, the IC50 was less than 100 nM.
